Read-outs that look alike come from different tables or passages of the source.
What was measured:
[1] = system: A. baumannii ATCC 17978; test: microbe, parasite or virus in culture; assay type: cell-based, Acinetobacter baumannii
Protocol: Development of Resistance Study. […] Tobramycin and colistin were included as controls. At 24-hour intervals, the cultures were assessed for growth. […] This serial passaging was repeated for 8 days.

[2] = system: MDR A. baumannii; test: Galleria mellonella in vivo larvae-infection model; conditions: single dose 100 mg/kg, agent alone; after 24 h
Protocol: Galleria mellonella In vivo Larvae-Infection Model. In vivo synergistic effects were determined using Galleria mellonella infection model, as previously described (49). Briefly, larvae were purchased from The Worm Lady Live Feeder (ON, Canada), stored in their natural habitat at 16° C., and used within 10 days of delivery. The larvae (average weight of 250 mg) were used for tolerability and efficacy studies. Tolerability study was performed by injecting a 10 μL aliquot of antimicrobial agents only at concentrations equivalent to 100 mg/kg or 200 mg/kg. The larvae (ten in each group) were incubated at 37° C. and monitored for 96 h. For efficacy studies, the virulence and bacterial load required to kill 100% of the larvae within 24 h (with no treatment) was first determined, which is approximately 10 CFU. Overnight grown culture of respective MDR A. baumannii isolate was standardized to 0.5 McFarland standard and diluted in PBS to a final concentration of 10^3 CFU/mL. A 10 μL aliquot of this solution (˜10 CFU) was injected into each larva and incubated for 3 h at 37° C. […] Larvae treated with 10 μL of PBS or high concentrations of test antibiotics served as negative and positive control, respectively. The larvae were incubated at 37° C. in Petri dishes lined with filter paper and scored for survivability every 6 h for up to 36 h. […]

[3] = system: K. pneumoniae; test: Checkerboard assay (antibiotic + adjuvant combination MIC); assay type: cell-based, Klebsiella pneumoniae; conditions: for MIC: Klebsiella pneumoniae, read-out: MIC of Novobiocin Alone
Protocol: (§1) Antimicrobial Susceptibility Assay. The in vitro antimicrobial activity of all compounds/antibiotics against a panel of bacteria was evaluated by microbroth dilution method in accordance with the Clinical and Laboratory Standards Institute (CLSI) guidelines (using ATCC strains as quality control strains) (54). Overnight grown bacterial cultures were diluted in saline to achieve a 0.5 McFarland turbidity, followed by 1:50 dilution in Mueller-Hinton broth (MHB) for inoculation to a final concentration of approximately 5×10^5 CFU/mL. […] The lowest concentration that prevented the visible growth of bacteria was defined as the MIC for each antimicrobial agent. The broth with or without bacterial cells was used as positive or negative control, respectively.
(§2) Checkerboard Assay. Combination studies with different antibiotics were performed in 96-well plates as previously described (19). Briefly, the antibiotic of interest was serially diluted in MHB along the abscissa while the adjuvant (tobramycin homodimer) was serially diluted in MHB along the ordinate. This creates a 10×7 matrices wherein each well consists of a combination of different antibiotic and adjuvant concentrations. Overnight grown bacterial cultures were diluted in saline to achieve a 0.5 McFarland turbidity, followed by 1:50 dilution in Mueller-Hinton broth (MHB) for inoculation to a final concentration of approximately 5×10^5 CFU/mL. […] MIC was recorded as wells with the lowest concentration of drugs with no bacterial growth. The fractional inhibitory concentration (FIC) for each antibiotic was calculated by dividing the MIC of the antibiotic in the presence of adjuvant by the MIC of the antibiotic alone. Similarly, the FIC of adjuvant was calculated by dividing the MIC of the adjuvant in the presence of antibiotic by the MIC of the adjuvant alone. FIC index is the sum of both FICs. FIC indices of ≤0.5 were deemed synergistic; >0.5-4, no interaction; and >4, antagonistic.

[4] = system: P. aeruginosa; test: as above; assay type: cell-based, Pseudomonas aeruginosa; conditions: Pseudomonas aeruginosa, read-out: MIC of Novobiocin Alone
[5] = system: A. baumannii; test: as above; assay type: cell-based, Acinetobacter baumannii; conditions: Acinetobacter baumannii, read-out: MIC of Novobiocin Alone
Protocol: as §1, §2

[6] = system: E. coli; test: as above; assay type: cell-based, Escherichia coli; conditions: Escherichia coli, read-out: MIC of Novobiocin Alone
Protocol: as §1, §2

[7] = system: MRSA ATCC 33592; test: MIC and combination against Gram-positive bacteria; assay type: cell-based; conditions: Staphylococcus aureus
Protocol: (§3) Next, we investigated whether tobramycin by itself would potentiate novobiocin against Gram-negative bacteria.
as §1

[8] = system: MRSE 61589; test: MIC and combination against Gram-positive bacteria; assay type: cell-based; conditions: Staphylococcus epidermidis
Protocol: as §3, §1

[9] = system: E. faecium ATCC 27270; test: MIC and combination against Gram-positive bacteria; assay type: cell-based; conditions: Enterococcus faecium, ATCC27270
Protocol: as §3, §1

[10] = system: E. coli ATCC 25922; test: Time-kill assay; assay type: cell-based, Escherichia coli; conditions: novobiocin 32 μg/ml, compound 1 7.1 μM
Protocol: Time-kill Assay. […] At specific time intervals (0, 1, 3, 6, 9, and 24 h), 100 μl was taken from each sample, serially diluted in sterile PBS, plated on LB agar plates, and incubated at 37° C. in a humid 5% CO2-enriched atmosphere. Bacterial colonies were counted after 20 h of incubation.

[11] = system: E. cloacae; test: Checkerboard assay (antibiotic + adjuvant combination MIC); assay type: cell-based, Enterobacter cloacae; conditions: Enterobacter cloacae, read-out: MIC of Novobiocin Alone
Protocol: as §1, §2

In the case of `CO[C@@H]1[C@@H](OC(N)=O)[C@@H](O)[C@H](Oc2ccc3c(O)c(NC(=O)c4ccc(O)c(CC=C(C)C)c4)c(=O)oc3c2C)OC1(C)C` [Novobiocin], the “fold change in MIC” value ([1]; after 3 days of serial passaging) is reported as 64 fold, the “fold change in MIC” value ([1]; after 5 days of serial passaging) is reported as 256 fold and the “mortality of infected larvae” value [2] is reported as 100%. For the same compound, the “MIC of Novobiocin Alone” value [3] was 256 mg/L, the MIC ([3]; K. pneumoniae 113250) was 512 mg/L and the MIC ([3]; K. pneumoniae 113254) was 256 mg/L. For the same compound, the MIC ([3]; K. pneumoniae 116381) was 1020 mg/L, the MIC ([4]; P. aeruginosa 259-96918) was 512 mg/L and the MIC ([4]; P. aeruginosa 260-97103) was 256 mg/L. For the same compound, the MIC ([4]; P. aeruginosa 262-101856) was 512 mg/L, the MIC ([4]; P. aeruginosa 264-104354) was 512 mg/L and the MIC ([4]; P. aeruginosa 91433) was 16 mg/L. It also gave an MIC ([4]; P. aeruginosa 100036) of 1020 mg/L, an MIC ([4]; P. aeruginosa 101243) of 128 mg/L and an MIC ([4]; P. aeruginosa 101885) of 1020 mg/L. The MIC ([4]; P. aeruginosa 114228) was 512 mg/L, the MIC ([4]; PA 91433) was 16 mg/L and the MIC ([4]; PA 101243) was 128 mg/L. The MIC ([4]; PA 114228) was 512 mg/L, the MIC ([4]; PAO1, P. aeruginosa PAO1) was 512 mg/L and the MIC ([4]; PAO1, PAO1 (wild-type)) was 512 mg/L. The MIC ([4]; PAO1, PAO1) was 512 mg/L, the MIC ([4]; PAO200 (efflux-deficient)) was 32 mg/L and the MIC ([4]; PAO750 (efflux-deficient)) was 32 mg/L. For the same compound, the MIC ([5]; A. baumannii 027) was 8 mg/L, the MIC ([5]; A. baumannii 031) was 8 mg/L and the MIC ([5]; A. baumannii 92247) was 4 mg/L. The MIC ([5]; A. baumannii LAC-4) was 8 mg/L, the MIC ([5]; AB 92247) was 4 mg/L and the MIC ([5]; ATCC17978, A. baumannii ATCC 17978) was 16 mg/L. The MIC ([5]; A. baumannii 110193) was 256 mg/L, the MIC ([6]; ATCC25922, E. coli ATCC 25922) was 64 mg/L and the MIC ([6]; E. coli 94393) was 128 mg/L. For the same compound, the MIC ([6]; E. coli 94474) was 256 mg/L, the MIC ([6]; E. coli 107115) was 128 mg/L and the MIC [7] was 0.125 mg/L. For the same compound, the MIC [8] was 0.0625 mg/L, the MIC [9] was 2 mg/L and the “incubation time after which bactericidal” value [10] was 24 h. For the same compound, the MIC ([11]; E. cloacae 117029) was 1020 mg/L, the MIC ([11]; E. cloacae 118568) was 1020 mg/L and the MIC ([11]; E. cloacae 121187) was 64 mg/L. The MIC ([11]; EC 118568) was 1020 mg/L.

— patent US20220249441A1, “Homodimeric Tobramycin Adjuvant Repurposes Novobiocin as an Effective Antibacterial Agent Against Gram-Negative Bacteria” (priority 2019, published 2022)
